What was measured:
Experiment in all cases: broad spectrum greenhouse test, postemergence application
Type in all cases: in vivo
Settings in all cases: rated about 10-13 days after application, scale 1-5
Barnyard Grass = tested on: Barnyard Grass
Text: (§1) A broad spectrum greenhouse test was run to show the activity of the acyloxadiazoles of formula III.
(§2) Square plastic pots were filled with a sterilized sandy loam soil and were planted to seeds of the various crops and weeds. Each pot was indi- viduall^y fertilized.
(§3) Test compounds of formula III were applied postemergence to some pots and preemergence to others. Postemergence applications of the compounds were sprayed over the emerged plants about 12 days after the seeds were planted. Preemergence applications were sprayed on the soil the day after the seeds were planted.
(§4) Each test compound was dissolved in 1:1 acetone:ethanol at the rate of 2 g. per 100 ml. The solution also contained about 2 g. per 100 ml. of an anionic-nonionic surfactant blend. One ml. of the solution was diluted with deionized water to obtain the dilution desired. The.appropriate amount of the solution was applied to each pot.
(§5) After the compounds were applied, the pots were moved to the greenhouse, watered as necessary, and observed and rated about 10-13 days after application of the compounds. Untreated control plants were used as standards in every test.

Wild Oat = tested on: Wild Oat
Text: as §1, §2, §3, §4, §5

Foxtail = tested on: Foxtail; parameters: key: 1 = normal plants; 5 = dead plants or no emergence
Text: as §1, §2, §3, §4, §5

Large Crabgrass = tested on: Large Crabgrass; parameters: key: 1 = normal plants; 5 = dead plants or no emergence
Text: as §1, §2, §3, §4, §5

Morningglory = tested on: Morningglory; parameters: key: 1 = normal plants; 5 = dead plants or no emergence
Text: as §1, §2, §3, §4, §5

Mustard = tested on: Mustard; parameters: key: 1 = normal plants; 5 = dead plants or no emergence
Text: as §1, §2, §3, §4, §5

Pigweed = tested on: Pigweed; parameters: key: 1 = normal plants; 5 = dead plants or no emergence
Text: as §1, §2, §3, §4, §5

Tomato = tested on: Tomato; parameters: key: 1 = normal plants; 5 = dead plants or no emergence
Text: as §1, §2, §3, §4, §5

Velvetleaf = tested on: Velvetleaf; parameters: key: 1 = normal plants; 5 = dead plants or no emergence
Text: as §1, §2, §3, §4, §5

Zinnia = tested on: Zinnia; parameters: key: 1 = normal plants; 5 = dead plants or no emergence
Text: as §1, §2, §3, §4, §5

Compound: CN(C)c1nc(CC(=O)C(C)(C)C)no1 [5-dimethylamino-3-(2,2-dimethylpropionyl-methyl)-1,2,4-oxadiazole]
- Postemergence rating, Barnyard Grass (Barnyard Grass; Rate of Appln. 1 lbs./acre): 4
- Postemergence rating, Barnyard Grass (Barnyard Grass; Rate of Appln. 2 lbs./acre): 4
- Postemergence rating, Barnyard Grass (Barnyard Grass; Rate of Appln. 4 lbs./acre): 4
- Postemergence rating, Wild Oat (Wild Oat; Rate of Appln. 1 lbs./acre): 2
- Postemergence rating, Wild Oat (Wild Oat; Rate of Appln. 2 lbs./acre): 3
- Postemergence rating, Wild Oat (Wild Oat; Rate of Appln. 4 lbs./acre): 4
- Postemergence rating, Foxtail (Foxtail; Rate of Appln. 1 lbs./acre): 4
- Postemergence rating, Foxtail (Foxtail; Rate of Appln. 2 lbs./acre): 5
- Postemergence rating, Foxtail (Foxtail; Rate of Appln. 4 lbs./acre): 5
- Postemergence rating, Large Crabgrass (Large Crabgrass; Rate of Appln. 1 lbs./acre): 5
- Postemergence rating, Large Crabgrass (Large Crabgrass; Rate of Appln. 2 lbs./acre): 5
- Postemergence rating, Large Crabgrass (Large Crabgrass; Rate of Appln. 4 lbs./acre): 5
- Postemergence rating, Morningglory (Morningglory; Rate of Appln. 1 lbs./acre): 2
- Postemergence rating, Morningglory (Morningglory; Rate of Appln. 2 lbs./acre): 5
- Postemergence rating, Morningglory (Morningglory; Rate of Appln. 4 lbs./acre): 4
- Postemergence rating, Mustard (Mustard; Rate of Appln. 1 lbs./acre): 5
- Postemergence rating, Mustard (Mustard; Rate of Appln. 2 lbs./acre): 4
- Postemergence rating, Mustard (Mustard; Rate of Appln. 4 lbs./acre): 5
- Postemergence rating, Pigweed (Pigweed; Rate of Appln. 1 lbs./acre): 5
- Postemergence rating, Pigweed (Pigweed; Rate of Appln. 2 lbs./acre): 5
- Postemergence rating, Pigweed (Pigweed; Rate of Appln. 4 lbs./acre): 5
- Postemergence rating, Tomato (Tomato; Rate of Appln. 1 lbs./acre): 3
- Postemergence rating, Tomato (Tomato; Rate of Appln. 2 lbs./acre): 5
- Postemergence rating, Tomato (Tomato; Rate of Appln. 4 lbs./acre): 5
- Postemergence rating, Velvetleaf (Velvetleaf; Rate of Appln. 1 lbs./acre): 5
- Postemergence rating, Velvetleaf (Velvetleaf; Rate of Appln. 2 lbs./acre): 5
- Postemergence rating, Velvetleaf (Velvetleaf; Rate of Appln. 4 lbs./acre): 5
- Postemergence rating, Zinnia (Zinnia; Rate of Appln. 1 lbs./acre): 5
- Postemergence rating, Zinnia (Zinnia; Rate of Appln. 2 lbs./acre): 5
- Postemergence rating, Zinnia (Zinnia; Rate of Appln. 4 lbs./acre): 5
